Data set [1] in a line: Muscle stimulation test on rabbits. The class given is in vivo, New Zealand rabbits. An excerpt:
The inventors have conducted the muscle stimulation test of Compounds Ia and II on rabbits. The test is as follows. Eight New Zealand rabbits were divided into three groups. Two groups, containing three rabbits per group, were administrated with Compound Ia and Compound II, respectively. The third group, containing two rabbits, was used as a negative control group. The rabbits were intramuscularly injected with high concentrations of the compounds into the left quadriceps and with low concentration into the right quadriceps. The negative control group was injected with an equal concentration of sodium chloride into the quadriceps of both sides. Each quadriceps was administrated with 1.0 mL once a day for three consecutive days. One or two rabbits from each group were anatomized after 48 hours of the injection. The remaining rabbits were anatomized after the end of the two-week recovery period.

Data set [2] is classed as physicochemical. The note with it: for content in aqueous injection solution: 37° C. An excerpt:
(§1) Compared to Compound II, Compound I has better stability in aqueous solution (see Table 2) and in the solid state (See Table 3). Thus Compound I can be stored without freezing or special treatment.

Data set [3] is described as follows: Solid state stability, 72 hours in storage at various temperatures. In kind it is physicochemical.
Excerpt: as §1

A short description of the next data set: pH of aqueous solution. The class given is physicochemical.
In data set [4] the test system is Excrement Enterococcus. The data set is described as follows: In-vivo antibacterial activity (protection of rats). As to conditions: against Excrement Enterococcus.
The subject of data set [5] is Moraxella Catarrhalis. The data set is described as follows: Vitro bacteriostasis, two-fold agar dilution method. In kind it is cell-based. On the procedure: (§2) Vitro bacteriostasis experiments of Compounds Ia, Ib, and Ic were performed using the two-fold agar dilution method.
Data set [6] has as its system Pneumonia Chain Coccus. The description is as above. The class given is cell-based. On the procedure: as §2
For another data set, the system named is Shigella. The data set is described as above. In kind it is cell-based. As to the method: as §2
In the next data set the test system is Type B Chain Coccus. The data set is described as above. The class given is cell-based. On the procedure:
as §2

Data set [7] deals with Excrement Enterococcus. The description is as above. The class given is cell-based. On the procedure:
as §2

A further data set relates to Haemophilus Influenzae. Described as above. The class given is cell-based. On the procedure:
as §2

Another data set has as its system Type A Chain Coccus. Described as above. In kind it is cell-based. As to the method:
as §2

Data set [8] concerns Pneumonia Chain Coccus. The experiment in a line: In-vivo antibacterial activity (protection of rats). The note with it: against Pneumonia Chain Coccus.
Data set [9] concerns Moraxella Catarrhalis. The description is as above. The note with it: against Moraxella Catarrhalis.
The format of data set [10] is in vivo. On the procedure: The inventors conducted preliminary pharmacokinetic study of Compound Ia on Beagle dogs. The Beagle dogs were allowed to drink water freely but not to eat food for 16 hours before and 4 hours after the intravenous injection of 50 mg/kg.bw of the compound. Intravenous blood sampling took place at 0, 0.083, 0.17, 0.25, 0.5, 1, 1.5, 2, 3, 4, 6, 9, 12 hours, respectively, after the injection, each blood sample being 3 mL. Thereafter the dogs were given the drugs every other week and blood samples were taken according to the above manner. The blood samples were added to the centrifuge tubes containing heparin and thoroughly mixed by centrifuging at 4000 rpm for 10 minutes. The blood plasma was separated and an abstraction agent (methanol/ethyl acetate 3:2 V/V) was added to and mixed with it by centrifuging at 10000 rpm for 10 minutes. The top, clear liquid, 20 μL, was taken and analyzed by HPLC.

A short description of data set [11]: Acute toxicity tests on rats. In kind it is in vivo. The note with it: intravenous injection.
Where [12] appears, read: healthy Beagle dogs, single intravenous injection 50 mg/kg.bw.

Structures are written as SMILES. Read-outs that look alike come from different tables or passages of the source.

Take `CC(C)N=C(NC(C)C)SCC(=O)NC1C(=O)N2C(C(=O)O)=C(CSc3nc(=O)c(=O)[nH]n3C)CSC12` (stereo not drawn) [Compound II, 7-(α-((N,N′-diisopropylamidino)thio)acetylamino)-3-(((1,2,5,6-tetrahydro-2-methyl-5,6-dioxo-1,2,4-triazin-3-yl)thio)methyl) cephalosporanic acid, reference compound]: the “irritation (general statement)” value in data set [1] (rabbit, in vivo) is “irritates muscles and blood vessels”. For the same molecule, the muscle irritation observed entry in data set [1] (rabbit, in vivo) is given as “various levels of intense irritation”. Further, in [2], the “stability (general statement)” value is recorded as “low stability”. The “content in aqueous injection solution” value in data set [2] (0 hr) is 98.50%; in data set [2] (0.2 hr), 94.33%; in data set [2] (1 hr), 84.26%; in data set [2] (2 hr), 77.04%; in [2] (3 hr), 71.06%; in data set [2] (4 hr) it was 66.48%. In addition, the “content after 72 hours in storage” value in data set [3] (10° C.) is 97.9%; in data set [3] (40° C.), 96.3%; in data set [3] (60° C.), 92.75%; in [3] (−5° C.) it was 98.0%. Besides, the pH in “pH of aqueous solution” (concentration not given) is given as 3.2. Further, the “pH value of saturated aqueous solution” value in the data set “pH of aqueous solution” (saturated aqueous solution) is listed as 3.2.
In general, AUC refers to concentration integrated over time. A high value points to high exposure. As a reminder, the Cmax is the highest concentration seen after dosing. In general, LD50 refers to the dose at which mortality reaches 50%. As for `CC(C)N=C(NC(C)C)SCC(=O)NC1C(=O)N2C(C(=O)[O-])=C(CSc3nc(=O)c(=O)[nH]n3C)CSC12.[Na+]` (stereo not drawn) [Compound Ia, 7-(α-((N,N′-diisopropylamidino)thio)acetylamino)-3-(((1,2,5,6-tetrahydro-2-methyl-5,6-dioxo-1,2,4-triazin-3-yl)thio)methyl) cephalosporanic acid mono sodium salt], the protection for rats result in the data set on Excrement Enterococcus [4], in the data set on Pneumonia Chain Coccus [8] and with Moraxella Catarrhalis [9] was “excellent protection” each time. The MIC90 worked out at 1 µg/mL against Moraxella Catarrhalis [5]; 0.125 µg/mL in the data set on Pneumonia Chain Coccus [6]; 4 µg/mL against Shigella; 0.0625 µg/mL against Type B Chain Coccus; 8 µg/mL against Excrement Enterococcus [7]; 0.5 µg/mL in the data set with Haemophilus Influenzae. This molecule also came in with an MIC90 against Type A Chain Coccus of 0.5 µg/mL. In addition, the muscle irritation observed result in [1] (rabbits, intramuscular into quadriceps, 1.0 mL once a day for three days, 48 hours and 14 days after last administration) is given as “slight irritation”. The “content in aqueous injection solution” value amounted to 98.60% in data set [2] (0 hr); 98.60% in data set [2] (0.2 hr); 97.98% in data set [2] (1 hr); 97.79% in data set [2] (2 hr); 97.24% in data set [2] (3 hr); 97.13% in data set [2] (4 hr). The same molecule registered an AUC in data set [10] (setting [12]) of 108.29 ± 18.17 µg·h/mL. In data set [10] (setting [12]), the ClB was 7.83 ± 1.5 mL/min/kg. In addition, in [10] (setting [12]), the Cmax stood at 116.35 ± 12.06 µg/mL. The V1 in [10] (setting [12]) is 0.25 ± 0.07 L/kg. Also, the VB in data set [10] (setting [12]) worked out at 1.61 ± 0.30 L/kg. In data set [10] (setting [12]), this molecule showed a t1/2α of 37.8 ± 7.2 min. The t1/2β in data set [10] (setting [12]) stood at 155 ± 2.4 min. For the same molecule, the “drug concentration after 12 hours of the administration” value in [10] (healthy Beagle dogs, single intravenous injection 50 mg/kg.bw, 12 hours) turned out to be 0.39 ± 0.09 µg/mL. Moreover, in data set [11], the LD50 amounted to 1747.6 mg/kg. The “content after 72 hours in storage” value worked out at 96.9% in data set [3] (10° C.), 96.6% in data set [3] (40° C.), 96.4% in [3] (60° C.) and 97.0% in [3] (−5° C.). Also, the pH in the data set “pH of aqueous solution” (concentration 0.1 g/mL) and in the data set “pH of aqueous solution” (concentration not given) was 7.3 each time. In “Solubility” (acetone), the solubility in acetone entry is reported as “not readily soluble”. Further, the “solubility in anhydrous ethanol” value in the data set “Solubility” (anhydrous ethanol) is on record as “not readily soluble”. The solubility in methanol result in “Solubility” (methanol) is recorded as “readily soluble”. In addition, the solubility in water result in “Solubility” (water) is on record as “readily soluble”.
`CC(C)N=C(NC(C)C)SCC(=O)NC1C(=O)N2C(C(=O)[O-])=C(CSc3nc(=O)c(=O)[nH]n3C)CSC12.CC(C)N=C(NC(C)C)SCC(=O)NC1C(=O)N2C(C(=O)[O-])=C(CSc3nc(=O)c(=O)[nH]n3C)CSC12.[Na+].[Na+]` (stereo not drawn) [Compound Ib, disodium 7-(α-((N,N′-diisopropylamidino)thio)acetylamino)-3-(((1,2,5,6-tetrahydro-2-methyl-5,6-dioxo-1,2,4-triazin-3-yl)thio)methyl) cephalosporanate]: the MIC90 came to 0.5 µg/mL against Moraxella Catarrhalis [5]; 0.5 µg/mL against Pneumonia Chain Coccus [6]; 4 µg/mL with Shigella; 0.0125 µg/mL in the data set with Type B Chain Coccus; 4 µg/mL in the data set on Excrement Enterococcus [7]; 0.5 µg/mL against Haemophilus Influenzae. This molecule registered an MIC90 in the data set on Type A Chain Coccus of 0.1 µg/mL. Moreover, the “content in aqueous injection solution” value in [2] (0 hr) turned out to be 98.80%; in data set [2] (0.2 hr), 98.54%; in [2] (1 hr), 97.14%; in data set [2] (2 hr), 96.66%; in [2] (3 hr), 95.21%; in [2] (4 hr), 94.30%. The molecule also registered a pH in the data set “pH of aqueous solution” (concentration 0.1 g/mL) of 10.02.
For the molecule `CC(C)N=C(NC(C)C)SCC(=O)NC1C(=O)N2C(C(=O)[O-])=C(CSc3nc(=O)c(=O)[nH]n3C)CSC12.[K+]` (stereo not drawn) [Compound Ic, 7-(α-((N,N′-diisopropylamidino)thio)acetylamino)-3-(((1,2,5,6-tetrahydro-2-methyl-5,6-dioxo-1,2,4-triazin-3-yl)thio)methyl) cephalosporanic acid monopotassium salt], the MIC90 against Moraxella Catarrhalis [5] came out at 0.5 µg/mL; against Pneumonia Chain Coccus [6] it was 0.5 µg/mL; with Shigella it was 4 µg/mL; with Type B Chain Coccus, 0.0156 µg/mL; against Excrement Enterococcus [7], 8 µg/mL; against Haemophilus Influenzae, 0.5 µg/mL. In the data set with Type A Chain Coccus, the MIC90 came to 0.1 µg/mL.
As for `CC(=O)OCC1=C(C(=O)O)N2C(=O)[C@@H](NC(=O)CSC(=NC(C)C)NC(C)C)[C@H]2SC1` [cefathiamidine, Cefathiamidine, reference compound], in data set [10] (Beagle dogs, preliminary pharmacokinetic study), the “biological half-life in blood” value turned out to be 0.65 hours. For the same molecule, the t1/2β in data set [10] (setting [12]) turned out to be 39 ± 1.8 min. This molecule also came in with an LD50 in data set [11] of 824.2 mg/kg.

(Values after patent publication US20140128359A1, “N-Heterocyclic Substituent-Containing Antibiotic, Preparation and Use Thereof” (priority 2012, published 2014).)
